Entries after “also recorded” stand apart in the source; their conditions may differ.
How the values were obtained:
human LYPLA2 = target: T1, human LYPLA2 (Homo sapiens, UniProt O95372); assay: IC50 by gel-based competitive ABPP in vitro, soluble HeLa cell proteome; format: biochemical; conditions: human LYPLA isoform, three replicates; Table 2 prints no unit, nM; read-out: LYPLA2 IC50
T1 construct: endogenous human LYPLA1/2 in a HeLa soluble proteome; endogenous in cells; host or cells: HeLa (soluble proteome in vitro; cultured cells in situ)
T1 sequence (O95372 whole entry, canonical isoform): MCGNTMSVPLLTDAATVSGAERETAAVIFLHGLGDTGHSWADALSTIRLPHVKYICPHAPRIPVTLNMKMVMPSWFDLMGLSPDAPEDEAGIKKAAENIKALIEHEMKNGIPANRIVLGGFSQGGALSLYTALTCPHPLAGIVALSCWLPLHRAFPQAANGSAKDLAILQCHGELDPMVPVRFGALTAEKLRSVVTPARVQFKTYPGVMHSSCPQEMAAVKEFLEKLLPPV
Method: (§1) Assay Overview: The purpose of this assay was to determine IC50 values of powder samples of test compounds for enzyme of interest activity, and anti-targets in a complex proteomic lysate using a gel-based competitive ABPP assay. In this assay, a complex proteome was incubated with test compound followed by reaction with FP-Rh and SDS-PAGE analysis as described above.
(§2) Protocol Summary: Soluble HeLa cell proteome (50 μL reaction volume, 1 mg/mL in DPBS) or mouse brain membrane proteome (50 μL reaction volume, 1 mg/mL in DPBS) was treated with varying concentrations of test compound (1 μL of a 50× stock in DMSO) for 30 minutes at 37° C. FP-Rh (1 μL of 50× stock in DMSO) was added to a final concentration of 2 μM. The reaction was incubated for 30 minutes at 25° C., quenched with 16 μL 4×SDS-PAGE loading buffer (reducing), separated by SDS-PAGE and visualized by in-gel fluorescent scanning. The percentage activity remaining was determined by measuring the integrated optical density of the enzymes of interest, and anti-target bands relative to a DMSO-only (no compound) control. IC50 values were determined from dose-response curves from three replicates at each inhibitor concentration: 1, 10, 100, 1000, 10000 nM and 0.01, 0.1, 1, 10, 100, 1000, 10000, 50000, and 100000 nM.

human LYPLA1 = target: T2, human LYPLA1 (Homo sapiens, UniProt O75608); assay: as above; format: biochemical; conditions: human LYPLA isoform, three replicates; Table 2 prints no unit, nM; read-out: LYPLA1 IC50
T2 construct: endogenous human LYPLA1/2 in a HeLa soluble proteome; endogenous in cells; host or cells: HeLa (soluble proteome in vitro; cultured cells in situ)
T2 sequence (O75608 whole entry, canonical isoform): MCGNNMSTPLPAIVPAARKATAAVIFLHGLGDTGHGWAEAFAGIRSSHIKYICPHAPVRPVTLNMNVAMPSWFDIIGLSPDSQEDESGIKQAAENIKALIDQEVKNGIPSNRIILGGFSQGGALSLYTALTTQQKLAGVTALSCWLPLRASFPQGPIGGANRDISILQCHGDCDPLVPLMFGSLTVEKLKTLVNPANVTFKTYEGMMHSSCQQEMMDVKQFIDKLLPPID
Method: as §1, §2

[1] = tested on: FP-sensitive SHs in the mouse brain membrane proteome; assay: Gel-based competitive ABPP in vitro, mouse brain membrane proteome, anti-targets; format: biochemical; conditions: for Anti-target(s) 0.1 μM: SHs with at least 50% inhibition at 0.1 μM compound; for Anti-target(s) 1 μM: SHs with at least 50% inhibition at 1 μM compound; for Anti-target(s) 10 μM: SHs with at least 50% inhibition at 10 μM compound; for Anti-target(s) 100 μM: SHs with at least 50% inhibition at 100 μM compound
Method in brief: (§3)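 Mouse brain membrane proteome (1 mg/mL in DPBS) was treated with compound (0.1-100 μM) for 30 min at 37 °C, then labeled with FP-Rh (2 μM final, 30 min, 25 °C). Bands were resolved by SDS-PAGE and scanned in-gel, with inhibition taken from band optical density versus DMSO. Targets counted as active or anti-targets at ≥50% inhibition.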

[2] = Analysis of cytotoxicity (WST-1); format: cell-based, human; conditions: human, HeLa cells; HeLa, 48 h, WST-1
Method: Assay Overview: The purpose of this assay was to determine cytotoxicity of powder samples of test compounds. In this assay, HeLa cells in either serum-free medium or medium containing fetal calf serum (FCS) were incubated with test compounds, followed by determination of cell viability. The assay utilized the WST-1 substrate, which was converted into colorimetric formazan dye by the metabolic activity of viable cells. The amount of formed formazan directly correlated to the number of metabolically active cells in the culture.
Protocol Summary: This assay was started by seeding HeLa cells in DMEM medium supplemented with 10% FCS and 1× Pen-Strep-Glutamine in a 96-well plate. Cells were incubated at 37° C. in a humidified incubator until 80% confluent (24 hours). Medium was removed, and 100 μL of fresh medium (serum-free or supplemented with 10% FCS), pre-mixed with DMSO or test compound, was added to each well. Cells were incubated for 48 hours at 37° C. in a humidified incubator and cell viability was determined by the WST-1 assay (Roche) according to manufacturer instructions. CC50 values were determined from dose-response curves from three replicates at each inhibitor concentration (10, 100, 1000, 10000, 100000 nM), compared to six replicates of cells treated with DMSO only.

LYPLA1 = target: T3, LYPLA1 (Mus musculus, UniProt P97823); assay: Gel-based competitive ABPP in vitro, mouse brain membrane proteome; format: biochemical; conditions: for inhibition at 0.1 µM: 0.1 μM compound, read-out: LYPLA1 % INH 0.1 μM; for inhibition at 0.1 µM / inhibition at 1 µM / inhibition at 10 µM / inhibition at 100 µM: 30 min, one replicate; for inhibition at 1 µM: 1 μM compound, read-out: LYPLA1 % INH 1 μM; for inhibition at 10 µM: 10 μM compound, read-out: LYPLA1 % INH 10 μM; for inhibition at 100 µM: 100 μM compound, read-out: LYPLA1 % INH 100 μM
T3 construct: a complex proteome endogenously expressing LYPLA1/2 was incubated with test compound; from tissue; host or cells: mouse brain, membrane fraction
T3 sequence (P97823 whole entry): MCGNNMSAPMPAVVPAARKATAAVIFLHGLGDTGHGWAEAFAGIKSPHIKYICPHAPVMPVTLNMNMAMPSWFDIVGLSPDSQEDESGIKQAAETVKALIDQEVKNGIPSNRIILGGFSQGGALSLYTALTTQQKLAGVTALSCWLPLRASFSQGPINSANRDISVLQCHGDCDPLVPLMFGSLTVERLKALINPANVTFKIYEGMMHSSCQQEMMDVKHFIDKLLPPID
Method in brief: as §3

LYPLA2 = target: T4, LYPLA2 (Mus musculus, UniProt Q9WTL7); assay: as above; format: biochemical; conditions: for inhibition at 0.1 µM: 0.1 μM compound, read-out: LYPLA2 % INH 0.1 μM; for inhibition at 0.1 µM / inhibition at 1 µM / inhibition at 10 µM / inhibition at 100 µM: 30 min, one replicate; for inhibition at 1 µM: 1 μM compound, read-out: LYPLA2 % INH 1 μM; for inhibition at 10 µM: 10 μM compound, read-out: LYPLA2 % INH 10 μM; for inhibition at 100 µM: 100 μM compound, read-out: LYPLA2 % INH 100 μM
T4 construct: a complex proteome endogenously expressing LYPLA1/2 was incubated with test compound; from tissue; host or cells: mouse brain, membrane fraction
T4 sequence (Q9WTL7 whole entry): as the sequence (O95372 whole entry, canonical isoform) above, with A154N, S193T counted along it
Method in brief: as §3

mABHD3 = target: T5, mABHD3 (Mus musculus, UniProt Q91ZH7); assay: Gel-based competitive ABPP, recombinant enzyme in transfected HEK293T cell lysates; format: biochemical; conditions: transfected HEK293T lysates, read-out: mABHD3 in vitro potency (IC50)
T5 construct: expressed in transfected cells; host or cells: HEK293T, transient transfection, pCMV-Sport6; lysate used in vitro
T5 sequence (Q91ZH7 1-411): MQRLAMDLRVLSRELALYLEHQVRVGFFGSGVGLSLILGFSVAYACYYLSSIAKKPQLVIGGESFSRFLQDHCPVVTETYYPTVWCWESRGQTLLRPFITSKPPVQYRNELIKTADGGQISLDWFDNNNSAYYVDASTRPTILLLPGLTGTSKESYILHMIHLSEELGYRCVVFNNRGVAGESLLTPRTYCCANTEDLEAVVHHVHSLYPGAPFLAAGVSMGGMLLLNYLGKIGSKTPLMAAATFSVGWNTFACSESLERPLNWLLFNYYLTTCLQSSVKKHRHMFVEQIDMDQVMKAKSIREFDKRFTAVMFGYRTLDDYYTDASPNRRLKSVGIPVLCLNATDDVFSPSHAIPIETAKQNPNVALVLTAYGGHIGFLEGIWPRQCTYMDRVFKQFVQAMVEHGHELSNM
Method: (§4) HEK293T cells were seeded at 2×10^5 per well on 6 well plates and grown for 48 h. They were then transfected with mABHD3 (pCMV-Sport6), hABHD4 (pcDNA3.1/myc-his), hPPT1 (pCMV6-XL5), or hPPT1 S115A (pCMV6-XL5), by incubating 0.5 μg of DNA with 3 μL of PEI MAX (1 mg/mL, Polysciences, Inc) in serum-free DMEM for 30 min, then adding them to cells. After 48 h cells were either treated with compound in situ, as described above, or harvested for in vitro studies. The […] PPT1 mutation was introduced using QuikChange II Site Directed Mutagenesis Kit (Agilent) with the following primers: […]
Human ABHD3 and ABHD4 were recombinantly expressed by transient transfection in HEK293T cells, and the cell lysates were combined to provide a convenient assay for monitor inhibition of both enzymes by gel-based ABPP (see FIG. 8A).

ABHD4 = target: T6, ABHD4 (Homo sapiens, UniProt Q8TB40); assay: as above; format: biochemical; parameters: myc-his; expressed in transfected cells; host or cells: HEK293T, transient transfection, pcDNA3.1/myc-his; lysate used in vitro; conditions: recombinant; for IC50: transfected HEK293T lysates, read-out: hABHD4 in vitro potency (IC50)
T6 sequence (Q8TB40 1-342): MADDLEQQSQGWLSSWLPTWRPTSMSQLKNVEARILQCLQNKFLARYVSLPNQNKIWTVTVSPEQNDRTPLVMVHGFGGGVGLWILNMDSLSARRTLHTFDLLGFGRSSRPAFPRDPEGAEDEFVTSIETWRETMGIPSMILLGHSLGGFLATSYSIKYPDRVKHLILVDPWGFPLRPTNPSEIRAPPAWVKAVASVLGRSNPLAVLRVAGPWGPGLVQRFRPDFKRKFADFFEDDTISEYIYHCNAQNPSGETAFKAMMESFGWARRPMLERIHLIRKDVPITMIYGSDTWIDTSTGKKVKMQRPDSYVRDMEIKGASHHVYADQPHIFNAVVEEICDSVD
Method: as §4
Human ABHD3 and ABHD4 were recombinantly expressed by transient transfection in HEK293T cells, and the cell lysates were combined to provide a convenient assay for monitor inhibition of both enzymes by gel-based ABPP (see FIG. 8A). […]

[3] = 20 μM, mouse brain (mem) proteome

Row | Structure (SMILES) | IC50 (human LYPLA2) [nM] | IC50 (human LYPLA1) [nM] | Anti-target(s) 0.1 μM [1] | Anti-target(s) 1 μM [1] | Anti-target(s) 10 μM [1] | Anti-target(s) 100 μM [1] | CC50 at 48 h [2] [µM] | inhibition at 0.1 µM (LYPLA1) [%] | inhibition at 1 µM (LYPLA1) [%] | inhibition at 10 µM (LYPLA1) [%] | inhibition at 100 µM (LYPLA1) [%] | inhibition at 0.1 µM (LYPLA2) [%] | inhibition at 1 µM (LYPLA2) [%] | inhibition at 10 µM (LYPLA2) [%] | inhibition at 100 µM (LYPLA2) [%] | IC50 (mABHD3) [µM] | LYPLA1 in vitro enzyme activity, % @ 20 μM (LYPLA1; [3]) [% @] | LYPLA2 in vitro enzyme activity, % @ 20 μM (LYPLA2; [3]) [% @] | IC50 (ABHD4) [µM] | preference ABHD4 over ABHD3 (ABHD4; combined HEK293T lysates, gel-based ABPP)
1 | O=C(ON1C(=O)C2CN(C(=O)N3CCCCC3)CCN2C1=O)N1CCC(CCc2ccc(Cl)cc2)CC1 (stereo not shown) [Compound 2, 1,3-dioxo-7-(piperidine-1-carbonyl)hexahydroimidazo[1,5-a]pyrazin-2(3H)-yl 4-(4-chlorophenethyl)piperidine-1-carboxylate] | 258 | 154 | ABHD6 | FAAH,; also recorded: ABHD6 | FAAH,; also recorded: ABHD12,; also recorded: ABHD4,; also recorded: MAGL,; also recorded: ABHD6 | FAAH,; also recorded: ABHD12,; also recorded: ABHD4,; also recorded: MAGL,; also recorded: ABHD6 | ≥ 10 | 50 | 100 | 100 | 100 | 50 | 100 | 100 | 100 | – | – | – | – | –
2 | CC(C)(C)CC(=O)N1CCN2C(=O)N(OC(=O)N3CCC(CCc4ccc(Cl)cc4)CC3)C(=O)C2C1 (stereo not shown) [Compound 4, 7-(3,3-dimethylbutanoyl)-1,3-dioxohexahydroimidazo[1,5-a]pyrazin-2(3H)-yl 4-(4-chlorophenethyl)piperidine-1-carboxylate] | 217 | 92 | ABHD6 | FAAH,; also recorded: ABHD6 | FAAH,; also recorded: ABHD12,; also recorded: MAGL,; also recorded: ABHD6 | FAAH,; also recorded: ABHD12,; also recorded: ABHD4,; also recorded: MAGL,; also recorded: ABHD6 | – | 80 | 100 | 100 | 100 | 80 | 100 | 100 | 100 | – | – | – | – | –
3 | O=C(ON1C(=O)C2CN(C(=O)c3ccc(Br)cc3)CCN2C1=O)N1CCC(CCc2ccc(Cl)cc2)CC1 (stereo not shown) [Compound 7, 7-(4-bromobenzoyl)-1,3-dioxohexahydroimidazo[1,5-a]pyrazin-2(3H)-yl 4-(4-chlorophenethyl)piperidine-1-carboxylate] | 726 | 306 | ABHD6 | ABHD6 | FAAH,; also recorded: ABHD12,; also recorded: ABHD6 | FAAH,; also recorded: ABHD12,; also recorded: ABHD4,; also recorded: MAGL,; also recorded: ABHD6 | – | 0 | 80 | 95 | 100 | 0 | 80 | 95 | 100 | – | – | – | – | –
4 | COC(=O)C1CCN(C(=O)ON2C(=O)C3CN(Cc4ccc(Oc5ccccc5)cc4)CCN3C2=O)CC1 (stereo not shown) [Compound 31, 1-(1,3-dioxo-7-(4-phenoxybenzyl)hexahydroimidazo[1,5-a]pyrazin-2(3H)-yl) 4-methyl piperidine-1,4-dicarboxylate] | – | – | – | – | – | – | – | – | – | – | – | – | – | – | – | > 10 | 0 | 0 | 8.2 | –
5 | O=C(ON1C(=O)C2CN(Cc3cccc(Oc4ccccc4)c3)CCN2C1=O)N1CCC(CCc2ccc(Cl)cc2)CC1 (stereo not shown) [Compound 35, 1,3-dioxo-7-(3-phenoxybenzyl)hexahydroimidazo[1,5-a]pyrazin-2(3H)-yl 4-(4-chlorophenethyl)piperidine-1-carboxylate] | – | – | – | – | – | – | – | – | – | – | – | – | – | – | – | > 10 | – | – | 1 | –
6 | COc1ccc(N2CCN(C(=O)ON3C(=O)C4CN(Cc5cccc(Oc6ccccc6)c5)CCN4C3=O)CC2)cc1 (stereo not shown) [Compound 36, 1,3-dioxo-7-(3-phenoxybenzyl)hexahydroimidazo[1,5-a]pyrazin-2(3H)-yl 4-(4-methoxyphenyl)piperazine-1-carboxylate] | – | – | – | – | – | – | – | – | – | – | – | – | – | – | – | > 10 | – | – | 0.2 | preferentially inhibited ABHD4 over ABHD3
